Where two headings read alike, the source gives them in different places.
What was measured:
BALB/c 3T3 cells = system: BALB/c 3T3 cells; design: focus formation ability (intensity of the tumor-promoting activity): key to the marks not given beside the values
Orm1 = assay: Quantitative RT-PCR of Orm1 gene expression in the BALB/c 3T3 cell transformation assay; format: cell-based, mouse
[1] = Example 3, MCA-initiated BALB/c 3T3 cells, RNA 48 hours after addition of test substance, normalized by β-actin

| Compound | Focus formation in the BALB/c 3T3 cell transformation assay (BALB/c 3T3 cells) | ability to form foci in the BALB/c 3T3 cell transformation assay (BALB/c 3T3 cells) | focus formation ability (intensity of the tumor-promoting activity) (BALB/c 3T3 cells) | Expression level of Orm1 (rates relative to the negative control) (Orm1) | ability to form foci in the Bhas cellular transformation assay (Bhas cells) | focus formation in the BALB/c 3T3 cell transformation assay (BALB/c 3T3 cells) | Expression level of Orm1 (rates relative to the negative control) (Orm1; [1]) |
| --- | --- | --- | --- | --- | --- | --- | --- |
| O=[As]O [Sodium arsenite, sodium arsenite] | + | able to form foci | ++ |  |  |  |  |
| C=C1[C@@H](O)[C@@H]2O[C@]3(CC[C@H](/C=C/[C@@H](C)[C@@H]4CC(C)=C[C@@]5(O[C@H](C[C@@](C)(O)C(=O)O)CC[C@H]5O)O4)O3)CC[C@H]2O[C@@H]1[C@@H](O)C[C@H](C)[C@H]1O[C@@]2(CCCCO2)CC[C@H]1C [Okadaic acid, okadaic acid] | + | able to form foci | +++ |  |  |  |  |
| COc1ccc(O)c(C(C)(C)C)c1 [butylhydroxyanisol] |  |  | ++ |  |  |  |  |
| [Na+].[Na+].[Na+].[O]=[V]([O-])([O-])[O-] [Sodium orthovanadate, sodium orthovanadate] | + | able to form foci | +++ | 1.5 |  |  |  |
| C=C(C)[C@@]12O[C@@]3(c4ccccc4)O[C@@H]1[C@@H]1[C@@H]4O[C@]4(CO)[C@@H](O)[C@]4(O)C(=O)C(C)=C[C@H]4[C@@]1(O3)[C@H](C)[C@H]2OC(=O)/C=C/C=C/c1ccccc1 [Mezerein, mezerein] | + | able to form foci | +++ | 2.6 | able to form foci |  |  |
| C[C@H](CCC(=O)O)[C@H]1CC[C@H]2[C@@H]3CC[C@@H]4C[C@H](O)CC[C@]4(C)[C@H]3CC[C@]12C [Lithocholic acid, lithocholic acid] | + | able to form foci |  |  | able to form foci |  |  |
| CC(C)(C)c1cc(O)ccc1O [TBHQ, tert-butylhydroquinone] | − | unable to form foci |  |  | able to form foci |  |  |
| O=C1NS(=O)(=O)c2ccccc21.[Na] [Saccharin sodium, saccharin sodium] | + | able to form foci | ++ |  |  |  |  |
| CCC1(c2ccccc2)C(=O)NC(=O)NC1=O [Phenobarbital sodium, phenobarbital sodium] | + | able to form foci | ++ |  |  |  |  |
| CCCCCCCCCCCCCC(=O)O[C@@H]1[C@@H](C)[C@@]2(O)[C@@H](C=C(CO)C[C@]3(O)C(=O)C(C)=C[C@@H]23)[C@@H]2C(C)(C)[C@]12OC(C)=O [TPA, phorbol 12-myristate 13-acetate] | + | able to form foci | +++ | 2.3 | able to form foci | Significant focus formation was observed |  |
| insulin | + | able to form foci | ++ |  | able to form foci |  | 2.0 |
| O=C1O[C@H]([C@@H](O)CO)C([O-])=C1O.[Na+] [Sodium ascorbate, sodium ascorbate] | − | unable to form foci |  |  |  |  |  |
| CC(C)[C@@H]1CC[C@@H](C)C[C@H]1O (racemic) [dl-menthol, DL-menthol] | − | unable to form foci |  |  |  |  | 0.9 |
| c1ccc2c(c1)ccc1c3ccccc3ccc21 [Chrysene, chrysene] | − | unable to form foci |  |  | able to form foci |  |  |
| OC[C@@H](O)[C@@H](O)[C@H](O)[C@H](O)CO [D-mannitol] | − | unable to form foci |  |  |  |  |  |
| c1cc2cccc3c4cccc5cccc(c(c1)c23)c54 [Perylene, perylene] | − | unable to form foci |  |  | able to form foci |  |  |
| O=[N+]([O-])c1cccc2ccccc12 [1-nitronaphthalene] | − | unable to form foci |  |  |  |  |  |
| c1ccc2cc3c(ccc4ccccc43)cc2c1 [Benz[a]anthracen, benz[a]anthracene] | − | unable to form foci |  |  |  |  |  |
| [Cl-].[Cl-].[Zn+2] [Zinc chloride, zinc chloride] | + | able to form foci | +++ | 3.4 | able to form foci | Significant focus formation was observed |  |

Source: US20140065632A1, “MARKER GENE FOR DETECTION OF TUMOR PROMOTER, AND METHOD FOR DETECTION OF TUMOR PROMOTER” (priority 2007, published 2014)
